Data from ChEMBL document CHEMBL6182945, “MMAE-Based Peptide-Drug Conjugates Targeting GPC3 for Precision Chemoradiotherapy in Hepatocellular Carcinoma” (J Med Chem, 2025).
The source made the active and inactive calls. The rule behind the calls is not given here.

Key:
Hep 3B2 [1] = assay: Cell cycle arrest in human Hep3B cells assessed as accumulation of cells at G0/G1 phase at 10 nM measured after 24 hrs incubation by PI staining based flow cytometry (reference value: 48%); type: functional
LX-2 [2] = assay: Cell cycle arrest in human LX-2 cells assessed as accumulation of cells at G0/G1 phase at 10 nM measured after 24 hrs incubation by PI staining based flow cytometry (reference value: 48.42%); type: functional
Huh-7 [3] = assay: Cell cycle arrest in human Huh-7 cells assessed as accumulation of cells at G0/G1 phase at 50 nM measured after 24 hrs incubation by PI staining based flow cytometry (reference value: 44.20%); type: functional
Huh-7 [4] = assay: Induction of immunogenic cell death (ICD) in human Huh-7 cells assessed as translocation of HMGB1 from nucleus to cytoplasm at 100 nM measured after 24 hrs by immunofluorescence assay; type: functional, cell-based
Huh-7 [5] = assay: Cell cycle arrest in human Huh-7 cells assessed as accumulation of cells at S phase at 50 nM measured after 24 hrs incubation by PI staining based flow cytometry (reference value: 37.30%); type: functional
Huh-7 [6] = assay: Cell cycle arrest in human Huh-7 cells assessed as accumulation of cells at G0/G1 phase at 100 nM measured after 24 hrs incubation by PI staining based flow cytometry (reference value: 47.97%); type: functional
Huh-7 [7] = assay: Cell cycle arrest in human Huh-7 cells assessed as accumulation of cells at G2/M phase at 10 nM measured after 24 hrs incubation by PI staining based flow cytometry (reference value: 18.88%); type: functional
Huh-7 [8] = assay: In vivo antitumor activity against human Huh-7 cells xenografted in female BALB/c mouse assessed as reduction in tumor volume at 0.5 mg/kg, iv total 4 doses measured on day 17 relative to control; type: functional; set-up: scale not given: the % may be the effect or the level left; conditions: time 17 day
Huh-7 [9] = assay: Cell cycle arrest in human Huh-7 cells assessed as accumulation of cells at G2/M phase at 30 nM measured after 24 hrs incubation by PI staining based flow cytometry (reference value: 18.88%); type: functional
Huh-7 [10] = assay: Cell cycle arrest in human Huh-7 cells assessed as accumulation of cells at G0/G1 phase at 50 nM measured after 30 hrs incubation by PI staining based flow cytometry (reference value: 44.20%); type: functional
Hep 3B2 [11] = assay: Cell cycle arrest in human Hep3B cells assessed as accumulation of cells at G2/M phase at 30 nM measured after 24 hrs incubation by PI staining based flow cytometry (reference value: 23%); type: functional
Huh-7 [12] = assay: Induction of immunogenic cell death (ICD) in human Huh-7 cells assessed as externalization of calreticulin (CALR) on the cell membrane at 100 nM measured after 24 hrs by immunofluorescence assay; type: functional, cell-based
Huh-7 [13] = assay: Cell cycle arrest in human Huh-7 cells assessed as accumulation of cells at S phase at 100 nM measured after 24 hrs incubation by PI staining based flow cytometry (reference value: 33.15%); type: functional
LX-2 [14] = assay: Cell cycle arrest in human LX-2 cells assessed as accumulation of cells at G2/M phase at 10 nM measured after 24 hrs incubation by PI staining based flow cytometry (reference value: 14.65%); type: functional
Huh-7 [15] = assay: Cell cycle arrest in human Huh-7 cells assessed as accumulation of cells at phase G2/M at 50 nM measured after 24 hrs incubation by PI staining based flow cytometry (reference value: 18.42%); type: functional
Huh-7 [16] = assay: Cell cycle arrest in human Huh-7 cells assessed as accumulation of cells at G2/M phase at 100 nM measured after 24 hrs incubation by PI staining based flow cytometry (reference value: 18.88%); type: functional
Hep 3B2 [17] = assay: Cell cycle arrest in human Hep3B cells assessed as accumulation of cells at G2/M phase at 10 nM measured after 24 hrs incubation by PI staining based flow cytometry (reference value: 23%); type: functional
LX-2 [18] = assay: Cell cycle arrest in human LX-2 cells assessed as accumulation of cells at G0/G1 phase at 100 nM measured after 24 hrs incubation by PI staining based flow cytometry (reference value: 48.42%); type: functional
LX-2 [19] = assay: Cell cycle arrest in human LX-2 cells assessed as accumulation of cells at S phase at 10 nM measured after 24 hrs incubation by PI staining based flow cytometry (reference value: 36.93%); type: functional
Huh-7 [20] = assay: Cell cycle arrest in human Huh-7 cells assessed as accumulation of cells at phase G2/M at 50 nM measured after 18 hrs incubation by PI staining based flow cytometry (reference value: 18.42%); type: functional
Huh-7 [21] = assay: Cell cycle arrest in human Huh-7 cells assessed as accumulation of cells at phase G2/M at 50 nM measured after 30 hrs incubation by PI staining based flow cytometry (reference value: 18.42%); type: functional
Huh-7 [22] = assay: Decrease in CDC25C expression in human irradiated Huh-7 cells at 100 nM measured after 24 hrs by Western blot analysis; type: functional, cell-based
Hep 3B2 [23] = assay: Cell cycle arrest in human Hep3B cells assessed as accumulation of cells at S phase at 10 nM measured after 24 hrs incubation by PI staining based flow cytometry (reference value: 28.91%); type: functional
Hep 3B2 [24] = assay: Cell cycle arrest in human Hep3B cells assessed as accumulation of cells at S phase at 30 nM measured after 24 hrs incubation by PI staining based flow cytometry (reference value: 28.91%); type: functional
Huh-7 [25] = assay: In vivo antitumor activity against human Huh-7 cells xenografted in female BALB/c mouse assessed as reduction in Ki67 expression in tumor at 2 mg/kg, iv total 4 doses measured on day 17 relative to control; type: functional, organism-based; conditions: time 17.0 day
Huh-7 [26] = assay: Cell cycle arrest in human Huh-7 cells assessed as accumulation of cells at G0/G1 phase at 50 nM measured after 18 hrs incubation by PI staining based flow cytometry (reference value: 44.20%); type: functional
Huh-7 [27] = assay: Cell cycle arrest in human Huh-7 cells assessed as accumulation of cells at G0/G1 phase at 30 nM measured after 24 hrs incubation by PI staining based flow cytometry (reference value: 47.97%); type: functional
Hep 3B2 [28] = assay: Cell cycle arrest in human Hep3B cells assessed as accumulation of cells at G0/G1 phase at 30 nM measured after 24 hrs incubation by PI staining based flow cytometry (reference value: 48%); type: functional
Huh-7 [29] = assay: Decrease in CDK1 expression in human irradiated Huh-7 cells at 100 nM measured after 24 hrs by Western blot analysis relative to irradiation alone; type: functional, cell-based
LX-2 [30] = assay: Cell cycle arrest in human LX-2 cells assessed as accumulation of cells at S phase at 30 nM measured after 24 hrs incubation by PI staining based flow cytometry (reference value: 36.93%); type: functional
LX-2 [31] = assay: Cell cycle arrest in human LX-2 cells assessed as accumulation of cells at S phase at 100 nM measured after 24 hrs incubation by PI staining based flow cytometry (reference value: 36.93%); type: functional
Huh-7 [32] = assay: Induction of radiation induced gamma-H2AX phosphorylation in human irradiated Huh-7 cells at 100 nM measured after 24 hrs by Western blot analysis; type: functional, cell-based
Huh-7 [33] = assay: In vivo apoptotic activity against human Huh-7 cells xenografted in female BALB/c mouse assessed as tumor apoptosis at 2 mg/kg, iv total 4 doses measured on day 17 relative to control by TUNEL assay; type: functional, organism-based; conditions: time 17.0 day

CC[C@H](C)[C@@H]([C@@H](CC(=O)N1CCC[C@H]1[C@H](OC)[C@@H](C)C(=O)N[C@H](C)[C@@H](O)c1ccccc1)OC)N(C)C(=O)[C@@H](NC(=O)[C@H](C(C)C)N(C)C(=O)OCc1ccc(NC(=O)[C@H](CCCNC(N)=O)NC(=O)[C@@H](NC(=O)CCCCCN2C(=O)CC(SC[C@H](N)C(=O)N[C@@H](CO)C(=O)N[C@@H](CC(N)=O)C(=O)N[C@@H](CC(=O)O)C(=O)N[C@@H](CCCNC(=N)N)C(=O)N3CCC[C@@H]3C(=O)N3CCC[C@@H]3C(=O)N[C@@H](CC(N)=O)C(=O)N[C@H](C(=O)N[C@@H](CC(C)C)C(=O)N[C@@H](CCC(N)=O)C(=O)N[C@@H](CCCCN)C(=O)N[C@@H](CCCNC(=N)N)C(N)=O)[C@@H](C)CC)C2=O)C(C)C)cc1)C(C)C (stereo partly drawn)
Activity (Hep 3B2 [1]): 41.26% | Activity (LX-2 [2]): 48.82% | Activity (Huh-7 [3]): 28.27% | Activity (Huh-7 [4]): Active | Activity (Huh-7 [5]): 14.94% | Activity (Huh-7 [6]): 12.12% | Activity (Huh-7 [7]): 35.65% | Activity (Huh-7 [8]): 15% | Activity (Huh-7 [9]): 49.02% | Activity (Huh-7 [10]): 31.74% | Activity (Hep 3B2 [11]): 45.12% | Activity (Huh-7 [12]): Active | Activity (Huh-7 [13]): 11.54% | Activity (LX-2 [14]): 13.04% | Activity (Huh-7 [15]): 56.79% | Activity (Huh-7 [16]): 76.34% | Activity (Hep 3B2 [17]): 39.22% | Activity (LX-2 [18]): 39.1% | Activity (LX-2 [19]): 38.15% | Activity (Huh-7 [20]): 44.55% | Activity (Huh-7 [21]): 54.83% | Activity (Huh-7 [22]): Active | Activity (Hep 3B2 [23]): 19.52% | Activity (Hep 3B2 [24]): 26.35% | Activity (Huh-7 [25]): Active | Activity (Huh-7 [26]): 31.13% | Activity (Huh-7 [27]): 37.22% | Activity (Hep 3B2 [28]): 28.5% | Activity (Huh-7 [29]): Active | Activity (LX-2 [30]): 38.52% | Activity (LX-2 [31]): 37.25% | Activity (Huh-7 [32]): Active | Activity (Huh-7 [33]): Active
